Data from patent US20210195905A1, “NATURAL COMPLEX PRESERVATIVE AGENT FOR GRAIN OR GRAIN PRODUCT” (BST Inc., priority 2019, published 2021).

Assay: DPPH radical scavenging (antioxidant activity)
Assay type: biochemical
Conditions: 0.2 mM DPPH, 30 minutes in the dark, absorbance 517 nm

SMILES | concentration for 50% scavenging of radical (SC50) [µg/mL]
COc1ccc(O)c(C(C)(C)C)c1 [BHA, Butylated Hydroxy Anisole] | 58.83
O=C1O[C@H]([C@@H](O)CO)C(O)=C1O [L-ascorbic acid] | 49.95
